Patent US20210269434A1, “TRICYCLIC COMPOUNDS AS INHIBITORS OF KRAS” (Incyte Corporation, priority 2020, published 2021)

Legend:
[1] = tested on: MIA PaCa-2 (KRAS G12C) cells; assay: Cellular pERK HTRF assay (KRAS_G12C pERK); assay type: cell-based, human; conditions: Homo sapiens, MIA PaCa-2, 4 hours incubation, read-out: G12C_pERK
In short: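 Phospho-ERK1/2 HTRF readout (665 and 620 nm) in lysed MIA PaCa-2 cells, antibodies incubated overnight at room temperature. Cells seeded the day before and treated with G12C compounds for 4 h at 37 °C; IC50 fitted to percent inhibition against log inhibitor concentration.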

[2] = molecular target: KRAS G12C (Homo sapiens, UniProt P01116, G12C); assay: GDP-GTP exchange assay (KRAS_G12C exchange); assay type: biochemical; conditions: bodipy-GDP loaded KRAS G12C 2.5 nM, SOS1 150 nM, GppNHp; 2 hours pre-incubation, 2 hours reaction; read-out: G12C_exchange
In short: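 Fluorescence exchange of bodipy-GDP for GppNHp, SOS1-driven, read at 485/520 nm; IC50 from four-parameter variable-slope fit. Both mutants used 2.5 nM final labelled protein and a 2 h compound pre-incubation. G12C reaction had 500 uM GppNHp and 150 nM SOS1 for 2 h; G12D ran 4 h.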

KRAS G12C, sequence (P01116 1-188 isoform P01116-2 G12C): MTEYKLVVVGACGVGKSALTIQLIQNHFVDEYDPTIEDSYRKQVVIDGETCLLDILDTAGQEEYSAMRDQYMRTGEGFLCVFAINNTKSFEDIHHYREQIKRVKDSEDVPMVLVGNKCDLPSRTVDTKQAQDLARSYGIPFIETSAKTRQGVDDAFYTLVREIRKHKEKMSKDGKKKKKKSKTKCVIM

Compound | IC50 [1] [µM] | IC50 [2] [µM]
C=CC(=O)N1CC[C@H](n2nnc3c(N4CC(N(C)C)C4)nc4c(F)c(-c5cccc(Cl)c5Cl)c(Cl)cc4c32)C[C@H]1CC#N [Example 113, 2-((2S,4S)-1-acryloyl-4-(8-chloro-7-(2,3-dichlorophenyl)-4-(3-(dimethylamino)azetidin-1-yl)-6-fluoro-1H-[1,2,3]triazolo[4,5-c]quinolin-1-yl)piperidin-2-yl)acetonitrile] | ≤ 0.1 | ≤ 0.1
C=CC(=O)N1CC[C@H](n2nnc3c(N4CC(N(C)C)C4)nc4c(F)c(-c5cccc(C)c5)c(Cl)cc4c32)C[C@H]1CC#N [Example 114, 2-((2S,4S)-1-acryloyl-4-(8-chloro-4-(3-(dimethylamino)azetidin-1-yl)-6-fluoro-7-(m-tolyl)-1H-[1,2,3]triazolo[4,5-c]quinolin-1-yl)piperidin-2-yl)acetonitrile] | ≤ 0.1 | ≤ 0.1
C=CC(=O)N1CC[C@H](n2nnc3c(N4CC(N(C)C)C4)nc4c(F)c(-c5cccc(C#N)c5C)c(Cl)cc4c32)C[C@H]1CC#N [Example 115, 3-(1-((2S,4S)-1-acryloyl-2-(cyanomethyl)piperidin-4-yl)-8-chloro-4-(3-(dimethylamino)azetidin-1-yl)-6-fluoro-1H-[1,2,3]triazolo[4,5-c]quinolin-7-yl)-2-methylbenzonitrile] | ≤ 0.1 | ≤ 0.1
C=CC(=O)N1CC[C@H](n2nnc3c(N4CC(N(C)C)C4)nc4c(F)c(-c5ccc(F)c(C)c5C)c(Cl)cc4c32)C[C@H]1CC#N [Example 116, 2-((2S,4S)-1-acryloyl-4-(8-chloro-4-(3-(dimethylamino)azetidin-1-yl)-6-fluoro-7-(4-fluoro-2,3-dimethylphenyl)-1H-[1,2,3]triazolo[4,5-c]quinolin-1-yl)piperidin-2-yl)acetonitrile] | ≤ 0.1 | ≤ 0.1
C=CC(=O)N1CC[C@H](n2nnc3c(N4CC(N(C)C)C4)nc4c(F)c(-c5ccccc5C5CC5)c(Cl)cc4c32)C[C@H]1CC#N [Example 117, 2-((2S,4S)-1-acryloyl-4-(8-chloro-7-(2-cyclopropylphenyl)-4-(3-(dimethylamino)azetidin-1-yl)-6-fluoro-1H-[1,2,3]triazolo[4,5-c]quinolin-1-yl)piperidin-2-yl)acetonitrile] | ≤ 0.1 | ≤ 0.1
C=CC(=O)N1CC[C@H](n2cnc3c(N4CC(C)(N(C)C)C4)nc4c(F)c(-c5ccc(F)cc5)c(Cl)cc4c32)C[C@H]1CC#N [Example 120, 2-((2S,4S)-1-acryloyl-4-(8-chloro-4-(3-(dimethylamino)-3-methylazetidin-1-yl)-6-fluoro-7-(4-fluorophenyl)-1H-imidazo[4,5-c]quinolin-1-yl)piperidin-2-yl)acetonitrile] | ≤ 0.1 | ≤ 0.1
C=CC(=O)N1CC[C@H](n2cnc3c(N4CC(C)(N(C)C)C4)nc4c(F)c(-c5ccc(F)cc5)c(C)cc4c32)C[C@H]1CC#N [Example 121, 2-((2S,4S)-1-acryloyl-4-(4-(3-(dimethylamino)-3-methylazetidin-1-yl)-6-fluoro-7-(4-fluorophenyl)-8-methyl-1H-imidazo[4,5-c]quinolin-1-yl)piperidin-2-yl)acetonitrile] | ≤ 0.1 | ≤ 0.1
C=CC(=O)N1CC[C@H](n2cnc3c(O[C@@H](C)CN(C)C)nc4c(F)c(-c5ccc(F)cc5)c(Cl)cc4c32)C[C@H]1CC#N [Example 122, 2-((2S,4S)-1-acryloyl-4-(8-chloro-4-(((S)-1-(dimethyl-amino)propan-2-yl)oxy)-6-fluoro-7-(4-fluorophenyl)-1H-imidazo[4,5-c]quinolin-1-yl)piperidin-2-yl)acetonitrile] | ≤ 0.1 | ≤ 0.1
C=CC(=O)N1CC[C@H](n2cnc3c(-n4ccnc4C)nc4c(F)c(-c5ccc(F)cc5)c(Cl)cc4c32)C[C@H]1CC#N [Example 123, 2-((2S,4S)-1-acryloyl-4-(8-chloro-6-fluoro-7-(4-fluorophenyl)-4-(2-methyl-1H-imidazol-1-yl)-1H-imidazo[4,5-c]quinolin-1-yl)piperidin-2-yl)acetonitrile] | ≤ 0.1 | ≤ 0.1
Cc1nccn1-c1nc2c(F)c(-c3ccc(F)cc3)c(Cl)cc2c2c1ncn2[C@H]1CCN(C(=O)/C=C/CN(C)C)[C@H](CC#N)C1 [Example 124, 2-((2S,4S)-4-(8-chloro-6-fluoro-7-(4-fluorophenyl)-4-(2-methyl-1H-imidazol-1-yl)-1H-imidazo[4,5-c]quinolin-1-yl)-1-((E)-4-(dimethylamino)-but-2-enoyl)piperidin-2-yl)acetonitrile] | ≤ 0.1 | ≤ 0.1
Cc1nccn1-c1nc2c(F)c(-c3ccc(F)cc3)c(Cl)cc2c2c1ncn2[C@H]1CCN(C(=O)/C=C/CF)[C@H](CC#N)C1 [Example 125, 2-((2S,4S)-4-(8-chloro-6-fluoro-7-(4-fluorophenyl)-4-(2-methyl-1H-imidazol-1-yl)-1H-imidazo[4,5-c]quinolin-1-yl)-1-((E)-4-fluorobut-2-enoyl)piperidin-2-yl)acetonitrile] | ≤ 0.1 | ≤ 0.1
C=CC(=O)N1CC[C@H](n2nnc3c(N4CC(C)(N(C)C)C4)nc4c(F)c(-c5ccc(F)cc5)c(Cl)cc4c32)C[C@H]1CC#N [Example 126, 2-((2S,4S)-1-acryloyl-4-(8-chloro-4-(3-(dimethylamino)-3-methylazetidin-1-yl)-6-fluoro-7-(4-fluorophenyl)-1H-[1,2,3]triazolo[4,5-c]quinolin-1-yl)piperidin-2-yl)acetonitrile] | ≤ 0.1 | ≤ 0.1
C=CC(=O)N1CC[C@H](n2nnc3c(N4CC(C)(N(C)C)C4)nc4c(F)c(-c5ccc(F)cc5)c(C)cc4c32)C[C@H]1CC#N [Example 127, 2-((2S,4S)-1-acryloyl-4-(4-(3-(dimethylamino)-3-methylazetidin-1-yl)-6-fluoro-7-(4-fluorophenyl)-8-methyl-1H-[1,2,3]triazolo[4,5-c]quinolin-1-yl)piperidin-2-yl)acetonitrile] | ≤ 0.1 | ≤ 0.1
C=CC(=O)N1CC[C@H](n2nnc3c(O[C@@H](C)CN(C)C)nc4c(F)c(-c5ccc(F)cc5)c(Cl)cc4c32)C[C@H]1CC#N [Example 128, 2-((2S,4S)-1-acryloyl-4-(8-chloro-4-(((S)-1-(dimethylamino)propan-2-yl)oxy)-6-fluoro-7-(4-fluorophenyl)-1H-[1,2,3]triazolo[4,5-c]quinolin-1-yl)piperidin-2-yl)acetonitrile] | ≤ 0.1 | ≤ 0.1
CC#CC(=O)N1CC[C@H](n2nnc3c(O[C@@H](C)CN(C)C)nc4c(F)c(-c5ccc(F)cc5)c(Cl)cc4c32)C[C@H]1CC#N [Example 129, 2-((2S,4S)-1-(but-2-ynoyl)-4-(8-chloro-4-(((S)-1-(dimethylamino)propan-2-yl)oxy)-6-fluoro-7-(4-fluorophenyl)-1H-[1,2,3]triazolo[4,5-c]quinolin-1-yl)piperidin-2-yl)acetonitrile] | ≤ 0.1 | ≤ 0.1
C[C@@H](CN(C)C)Oc1nc2c(F)c(-c3ccc(F)cc3)c(Cl)cc2c2c1nnn2[C@H]1CCN(C(=O)/C=C/CF)[C@H](CC#N)C1 [Example 130, 2-((2S,4S)-4-(8-chloro-4-(((S)-1-(dimethylamino)propan-2-yl)oxy)-6-fluoro-7-(4-fluorophenyl)-1H-[1,2,3]triazolo[4,5-c]quinolin-1-yl)-1-((E)-4-fluorobut-2-enoyl)piperidin-2-yl)acetonitrile] | ≤ 0.1 | ≤ 0.1
C=CC(=O)N1CC[C@H](n2nnc3c(OC[C@@H]4CCCN4C)nc4c(F)c(-c5ccc(F)cc5)c(Cl)cc4c32)C[C@H]1CC#N [Example 131, 2-((2S,4S)-1-acryloyl-4-(8-chloro-6-fluoro-7-(4-fluorophenyl)-4-(((S)-1-methylpyrrolidin-2-yl)methoxy)-1H-[1,2,3]triazolo[4,5-c]quinolin-1-yl)piperidin-2-yl)acetonitrile] | ≤ 0.1 | ≤ 0.1
C=CC(=O)N1CC[C@H](n2nnc3c(O[C@@H](C)CN(C)C)nc4c(F)c(-c5ccc(F)cc5)c(C)cc4c32)C[C@H]1CC#N [Example 132, 2-((2S,4S)-1-acryloyl-4-(4-(((S)-1-(dimethylamino)propan-2-yl)oxy)-6-fluoro-7-(4-fluorophenyl)-8-methyl-1H-[1,2,3]triazolo[4,5-c]quinolin-1-yl)piperidin-2-yl)acetonitrile] | ≤ 0.1 | ≤ 0.1
CC#CC(=O)N1CC[C@H](n2nnc3c(O[C@@H](C)CN(C)C)nc4c(F)c(-c5ccc(F)cc5)c(C)cc4c32)C[C@H]1CC#N [Example 133, 2-((2S,4S)-1-(but-2-ynoyl)-4-(4-(((S)-1-(dimethylamino)propan-2-yl)oxy)-6-fluoro-7-(4-fluorophenyl)-8-methyl-1H-[1,2,3]triazolo[4,5-c]quinolin-1-yl)piperidin-2-yl)acetonitrile] | ≤ 0.1 | ≤ 0.1
Cc1cc2c(nc(O[C@@H](C)CN(C)C)c3nnn([C@H]4CCN(C(=O)/C=C/CF)[C@H](CC#N)C4)c32)c(F)c1-c1ccc(F)cc1 [Example 134, 2-((2S,4S)-4-(4-(((S)-1-(dimethylamino)propan-2-yl)oxy)-6-fluoro-7-(4-fluorophenyl)-8-methyl-1H-[1,2,3]triazolo[4,5-c]quinolin-1-yl)-1-((E)-4-fluorobut-2-enoyl)piperidin-2-yl)acetonitrile] | ≤ 0.1 | ≤ 0.1
